Experiments:
Format in all cases: in vivo
[1] = system: giant foxtail (Setaria faberi); assay: Test G Post-Emergence Protocol; conditions: Setaria faberi, post-emergence, 312 h, read-out: Foxtail, Giant damage rating; for pest or weed control at 15.625 g/ha: 15.625 g ai/ha, evaluated after 13 days (100=total damage to plant; 0=no damage to plant); for pest or weed control at 62.5 g/ha: 62.5 g ai/ha; for pest or weed control at 62.5 g/ha / pest or weed control at 250 g/ha: evaluated after 13 days, 100=total damage to plant, 0=no damage to plant; for pest or weed control at 250 g/ha: 250 g ai/ha
Summary of the method: (§1)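 Post-emergence herbicidal damage, scored visually 0–100 at 13 days. Application at 15.625, 62.5 or 250 g/ha onto 8-day-old plants grown under glasshouse control.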

[2] = system: barnyardgrass (Echinochloa crus-galli); assay: Test G Post-Emergence Protocol; conditions: Echinochloa crus-galli, post-emergence, 312 h, read-out: Barnyardgrass damage rating; for pest or weed control at 15.625 g/ha: 15.625 g ai/ha, evaluated after 13 days (100=total damage to plant; 0=no damage to plant); for pest or weed control at 62.5 g/ha: 62.5 g ai/ha; for pest or weed control at 62.5 g/ha / pest or weed control at 250 g/ha: evaluated after 13 days, 100=total damage to plant, 0=no damage to plant; for pest or weed control at 250 g/ha: 250 g ai/ha
Summary of the method: as §1

[3] = system: ivy-leaved morning glory (Ipomoea hederacea); assay: Test G Post-Emergence Protocol; conditions: Ipomoea, post-emergence, 312 h, read-out: Morningglory, Ivy-leaved damage rating; for pest or weed control at 15.625 g/ha: 15.625 g ai/ha, evaluated after 13 days (100=total damage to plant; 0=no damage to plant); for pest or weed control at 62.5 g/ha: 62.5 g ai/ha; for pest or weed control at 62.5 g/ha / pest or weed control at 250 g/ha: evaluated after 13 days, 100=total damage to plant, 0=no damage to plant; for pest or weed control at 250 g/ha: 250 g ai/ha
Summary of the method: as §1

[4] = system: velvetleaf (Abutilon theophrasti); assay: Test G Post-Emergence Protocol; conditions: Abutilon theophrasti, post-emergence, 312 h, read-out: Velvetleaf damage rating; for pest or weed control at 15.625 g/ha: 15.625 g ai/ha, evaluated after 13 days (100=total damage to plant; 0=no damage to plant); for pest or weed control at 62.5 g/ha: 62.5 g ai/ha; for pest or weed control at 62.5 g/ha / pest or weed control at 250 g/ha: evaluated after 13 days, 100=total damage to plant, 0=no damage to plant; for pest or weed control at 250 g/ha: 250 g ai/ha
Summary of the method: as §1

[5] = system: corn (Zea mays); assay: Test G Post-Emergence Protocol; conditions: Zea mays, post-emergence, 312 h, read-out: Corn damage rating; for plant injury at 15.625 g/ha: 15.625 g ai/ha, evaluated after 13 days (100=total damage to plant; 0=no damage to plant); for plant injury at 62.5 g/ha: 62.5 g ai/ha; for plant injury at 62.5 g/ha / plant injury at 250 g/ha: evaluated after 13 days, 100=total damage to plant, 0=no damage to plant; for plant injury at 250 g/ha: 250 g ai/ha
Summary of the method: as §1

[6] = system: redroot pigweed (Amaranthus retroflexus); assay: Test G Post-Emergence Protocol; conditions: Amaranthus retroflexus, post-emergence, 312 h, read-out: Pigweed, Redroot damage rating; for pest or weed control at 15.625 g/ha: 15.625 g ai/ha, evaluated after 13 days (100=total damage to plant; 0=no damage to plant); for pest or weed control at 62.5 g/ha: 62.5 g ai/ha; for pest or weed control at 62.5 g/ha / pest or weed control at 250 g/ha: evaluated after 13 days, 100=total damage to plant, 0=no damage to plant; for pest or weed control at 250 g/ha: 250 g ai/ha
Summary of the method: as §1

[7] = system: giant foxtail (Setaria faberi); assay: Test G Pre-Emergence Protocol; conditions: Setaria faberi, pre-emergence, 312 h, evaluated after 13 days; for pest or weed control at 15.625 g/ha: 15.625 g ai/ha; for pest or weed control at 15.625 g/ha / pest or weed control at 250 g/ha: read-out: Foxtail, Giant damage rating (100=total damage to plant; 0=no damage to plant); for pest or weed control at 62.5 g/ha: 62.5 g ai/ha, 100=total damage to plant, 0=no damage to plant, read-out: Foxtail, Giant damage rating; for pest or weed control at 250 g/ha: 250 g ai/ha
Summary of the method: (§2)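 Test compound in 0.5% Tween 20 acetone/water (50:50) was applied at three rates (15.625, 62.5, 250 g/ha) to soil sown one day earlier. After 13 days plants were scored for injury, where 0 means unaffected and 100 means completely damaged.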

[8] = system: barnyardgrass (Echinochloa crus-galli); assay: Test G Pre-Emergence Protocol; conditions: Echinochloa crus-galli, pre-emergence, 312 h, evaluated after 13 days; for pest or weed control at 15.625 g/ha: 15.625 g ai/ha; for pest or weed control at 15.625 g/ha / pest or weed control at 250 g/ha: read-out: Barnyardgrass damage rating (100=total damage to plant; 0=no damage to plant); for pest or weed control at 62.5 g/ha: 62.5 g ai/ha, 100=total damage to plant, 0=no damage to plant, read-out: Barnyardgrass damage rating; for pest or weed control at 250 g/ha: 250 g ai/ha
Summary of the method: as §2

[9] = system: ivy-leaved morning glory (Ipomoea hederacea); assay: Test G Pre-Emergence Protocol; conditions: Ipomoea, pre-emergence, 312 h, evaluated after 13 days; for pest or weed control at 15.625 g/ha: 15.625 g ai/ha; for pest or weed control at 62.5 g/ha: 62.5 g ai/ha, 100=total damage to plant, 0=no damage to plant, read-out: Morningglory, Ivy-leaved damage rating
Summary of the method: as §2

[10] = system: velvetleaf (Abutilon theophrasti); assay: Test G Pre-Emergence Protocol; conditions: Abutilon theophrasti, pre-emergence, 312 h, evaluated after 13 days; for pest or weed control at 15.625 g/ha: 15.625 g ai/ha; for pest or weed control at 15.625 g/ha / pest or weed control at 250 g/ha: read-out: Velvetleaf damage rating (100=total damage to plant; 0=no damage to plant); for pest or weed control at 62.5 g/ha: 62.5 g ai/ha, 100=total damage to plant, 0=no damage to plant, read-out: Velvetleaf damage rating; for pest or weed control at 250 g/ha: 250 g ai/ha
Summary of the method: as §2

[11] = system: corn (Zea mays); assay: Test G Pre-Emergence Protocol; conditions: Zea mays, pre-emergence, 312 h, evaluated after 13 days; for plant injury at 15.625 g/ha: 15.625 g ai/ha; for plant injury at 15.625 g/ha / plant injury at 250 g/ha: read-out: Corn damage rating (100=total damage to plant; 0=no damage to plant); for plant injury at 62.5 g/ha: 62.5 g ai/ha, 100=total damage to plant, 0=no damage to plant, read-out: Corn damage rating; for plant injury at 250 g/ha: 250 g ai/ha
Summary of the method: as §2

[12] = system: redroot pigweed (Amaranthus retroflexus); assay: Test G Pre-Emergence Protocol; conditions: Amaranthus retroflexus, pre-emergence, 312 h, evaluated after 13 days; for pest or weed control at 15.625 g/ha: 15.625 g ai/ha; for pest or weed control at 15.625 g/ha / pest or weed control at 250 g/ha: read-out: Pigweed, Redroot damage rating (100=total damage to plant; 0=no damage to plant); for pest or weed control at 62.5 g/ha: 62.5 g ai/ha, 100=total damage to plant, 0=no damage to plant, read-out: Pigweed, Redroot damage rating; for pest or weed control at 250 g/ha: 250 g ai/ha
Summary of the method: as §2

[13] = read-out: Morningglory, Ivy-leaved damage rating (100=total damage to plant; 0=no damage to plant)

| Structure (SMILES) | pest or weed control at 15.625 g/ha [1] | pest or weed control at 62.5 g/ha [1] | pest or weed control at 250 g/ha [1] | pest or weed control at 15.625 g/ha [2] | pest or weed control at 62.5 g/ha [2] | pest or weed control at 250 g/ha [2] | pest or weed control at 15.625 g/ha [3] | pest or weed control at 62.5 g/ha [3] | pest or weed control at 250 g/ha [3] | pest or weed control at 15.625 g/ha [4] | pest or weed control at 62.5 g/ha [4] | pest or weed control at 250 g/ha [4] | plant injury at 15.625 g/ha [5] | plant injury at 62.5 g/ha [5] | plant injury at 250 g/ha [5] | pest or weed control at 15.625 g/ha [6] | pest or weed control at 62.5 g/ha [6] | pest or weed control at 250 g/ha [6] | pest or weed control at 15.625 g/ha [7] | pest or weed control at 62.5 g/ha [7] | other results |
| --- | --- | --- | --- | --- | --- | --- | --- | --- | --- | --- | --- | --- | --- | --- | --- | --- | --- | --- | --- | --- | --- |
| CN1C[C@H](c2ccc(C(F)(F)F)cc2)[C@@H](C(=O)Nc2ccc3ncccc3n2)C1=O (racemic) [Compound 1833] | 0% | 0% | 0% | 0% | 0% | 0% | 0% | 0% | 0% | 0% | 0% | 0% | 0% | 0% | 0% | 0% | 0% | 0% | 0% | 0% | pest or weed control at 250 g/ha [7]: 0%; pest or weed control at 15.625 g/ha [8]: 0%; pest or weed control at 62.5 g/ha [8]: 0%; pest or weed control at 250 g/ha [8]: 0%; pest or weed control at 15.625 g/ha [9, 13]: 0%; pest or weed control at 62.5 g/ha [9]: 0%; pest or weed control at 250 g/ha ([9]; 250 g ai/ha, read-out: Morningglory, Ivy-leaved damage rating (100=total damage to plant; 0=no damage to plant)): 0%; pest or weed control at 15.625 g/ha [10]: 0%; pest or weed control at 62.5 g/ha [10]: 0%; pest or weed control at 250 g/ha [10]: 0%; plant injury at 15.625 g/ha [11]: 0%; plant injury at 62.5 g/ha [11]: 0%; plant injury at 250 g/ha [11]: 0%; pest or weed control at 15.625 g/ha [12]: 0%; pest or weed control at 62.5 g/ha [12]: 0%; pest or weed control at 250 g/ha [12]: 0% |
| CN1C[C@H](c2ccc(C(F)(F)F)cc2)[C@@H](C(=O)Nc2cnccc2F)C1=O (racemic) [Compound 1744] | 0% | 20% | 60% | 0% | 10% | 70% | 0% | 0% | 40% | 0% | 0% | 10% | 0% | 0% | 10% | 0% | 10% | 30% | 0% | 10% | pest or weed control at 250 g/ha [7]: 50%; pest or weed control at 15.625 g/ha [8]: 0%; pest or weed control at 62.5 g/ha [8]: 0%; pest or weed control at 250 g/ha [8]: 0%; pest or weed control at 15.625 g/ha [9, 13]: 0%; pest or weed control at 62.5 g/ha [9]: 0%; pest or weed control at 15.625 g/ha [10]: 0%; pest or weed control at 62.5 g/ha [10]: 0%; pest or weed control at 250 g/ha [10]: 0%; plant injury at 15.625 g/ha [11]: 0%; plant injury at 62.5 g/ha [11]: 0%; plant injury at 250 g/ha [11]: 0%; pest or weed control at 15.625 g/ha [12]: 0%; pest or weed control at 62.5 g/ha [12]: 10%; pest or weed control at 250 g/ha [12]: 10% |
